The text below walks through data of ChEMBL document CHEMBL2021782, “Drug-to-genome-to-drug, step 2: reversing selectivity in a series of antiplasmodial compounds” (J Med Chem, 2012).

The nature of data set [1]: Selectivity ratio of CC50 for human MRC5 SV2 cells to IC50 for chloroquine-sensitive Plasmodium falciparum GHA strain. In kind it is ADME, cell-based. The note with it: read-out: Ratio CC50/IC50.
Data set [2] in a line: Cytotoxicity against human MRC5 SV2 cells after 72 hrs using resazurin by fluorimetry. The format is cell-based. In general terms: The colour change of resazurin is a common sign of viable cells or microbes.
Data set [3] deals with Plasmodium falciparum. Description: Antiplasmodial activity against chloroquine-sensitive Plasmodium falciparum GHA infected in human erythrocytes after 72 hrs using malstat staining by spectrophotometry. In kind it is functional, organism-based.
In data set [4] the target is cGMP-specific 3',5'-cyclic phosphodiesterase (Bos taurus, UniProt Q28156). Description: Inhibition of bovine PDE5 after 24 hrs by time-resolved fluorescence resonance energy transfer assay.
Data set [5] can be described thus: Selectivity index, ratio of IC50 for chloroquine-sensitive Plasmodium falciparum GHA to IC50 for bovine PDE5.
A short description of data set [6]: Selectivity index, ratio of IC50 for chloroquine-sensitive Plasmodium falciparum K1 to IC50 for bovine PDE5.
Data set [7] concerns Plasmodium falciparum. Briefly: Antiplasmodial activity against chloroquine-sensitive Plasmodium falciparum K1 infected in human erythrocytes after 72 hrs using malstat staining by spectrophotometry. The format is functional, organism-based. Particulars: K1, 72 h.

pIC50: −log10 of the molar value.

On to `O=C1[C@H]2Cc3c([nH]c4ccccc34)[C@@H](c3ccc4c(c3)OCO4)N2C(=O)CN1[C@@H]1CCN(CCc2ccccc2)C1`, for which, in data set [1], the selectivity ratio came out at 1. Moreover, in data set [2], the half-maximal cytotoxic concentration (CC50) at 72 h was 1 µM. The pIC50 with Plasmodium falciparum [3] was 5.28.

For `O=C1[C@H]2Cc3c([nH]c4ccccc34)[C@@H](c3ccc4c(c3)OCO4)N2C(=O)CN1[C@@H]1CCN(CC2CCCCC2)C1`, in data set [1], the selectivity ratio turned out to be 7. The molecule further yielded a CC50 at 72 h in data set [2] of 7 µM. The molecule further showed a pIC50 in the data set on Plasmodium falciparum [3] of 6.05.

Regarding `O=C1[C@H]2Cc3c([nH]c4ccccc34)[C@@H](c3ccc4c(c3)OC(F)(F)O4)N2C(=O)CN1[C@@H]1CCN(Cc2ccccc2)C1`, the selectivity ratio in data set [1] was 1. Also, in data set [2], half-maximal cytotoxicity (CC50 at 72 h) was put at 8 µM. In the data set on Plasmodium falciparum [3], this molecule gave a pIC50 of 4.96.

Consider `O=C1[C@H]2Cc3c([nH]c4ccccc34)[C@@H](c3ccc(OC(F)F)cc3)N2C(=O)CN1[C@@H]1CCN(Cc2ccccc2)C1`, for which the selectivity ratio in data set [1] is > 6. Also, in data set [2], the CC50 at 72 h was > 64 µM. For the same molecule, in the data set on Plasmodium falciparum [3], the pIC50 is 4.96.

Consider `COc1cc([C@@H]2c3[nH]c4ccccc4c3C[C@@H]3C(=O)N([C@@H]4CCN(Cc5ccccc5)C4)CC(=O)N23)ccc1O`, for which the selectivity ratio in data set [1] was found to be 44. The values for the pIC50 (in data set [4]; in the data set with Plasmodium falciparum [3]) were < 6.00 and 6.28, respectively. Further, the CC50 at 72 h in data set [2] is 23 µM.

Take `O=C1[C@H]2Cc3c([nH]c4ccccc34)[C@@H](c3ccc4nnnn4c3)N2C(=O)CN1[C@@H]1CCN(Cc2ccccc2)C1`: the selectivity ratio in data set [1] turned out to be 3. The CC50 at 72 h in data set [2] worked out at 21 µM. The molecule further showed a pIC50 in the data set with Plasmodium falciparum [3] of 5.15.

Consider `Cn1ccnc1CN1CC[C@@H](N2CC(=O)N3[C@H](c4ccc5c(c4)OCO5)c4[nH]c5ccccc5c4C[C@@H]3C2=O)C1`, for which the selectivity ratio in data set [1] was found to be 50. The pIC50 in data set [4] was 9.00; in the data set on Plasmodium falciparum [3] it was 6.10. In addition, the Ratio IC50 in data set [5] was 0.003. Besides, it took 50 µM to reach half-maximal cytotoxicity in data set [2] (CC50 at 72 h).

With `O=C1[C@H]2Cc3c([nH]c4ccccc34)[C@@H](c3ccc(Cl)nc3)N2C(=O)CN1[C@@H]1CCN(Cc2ccccc2)C1`, the selectivity ratio in data set [1] worked out at 1. The molecule further showed a CC50 at 72 h in data set [2] of 14 µM. Also, the pIC50 in the data set on Plasmodium falciparum [3] is 4.96.

Turning to `COc1ccc([C@@H]2c3[nH]c4ccccc4c3C[C@@H]3C(=O)N([C@@H]4CCN(Cc5ccc6c(c5)OCO6)C4)CC(=O)N23)cc1OC`, in data set [6], the Ratio IC50 is > 10. Also, the selectivity ratio in data set [1] was found to be 25. Moreover, the figures for the pIC50 (in data set [4]; in the data set with Plasmodium falciparum [7]) were < 5.00 and 6.02, respectively. In data set [2], this molecule gave a CC50 at 72 h of 25 µM.

Take `O=C1[C@H]2Cc3c([nH]c4ccccc34)[C@@H](c3ccc4nsnc4c3)N2C(=O)CN1[C@@H]1CCN(Cc2ccccc2)C1`: the selectivity ratio in data set [1] stood at 50. The negative logarithm of the IC50 (pIC50) in data set [4] was 7.55; with Plasmodium falciparum [3] it was 6.22. This molecule also gave a cytotoxic concentration (CC50) at 72 h in data set [2] of 30 µM.

`O=C1[C@H]2Cc3c([nH]c4ccccc34)[C@@H](c3ccc4c(c3)OCO4)N2C(=O)CN1[C@@H]1CCN(CCCCCO)C1`: the selectivity ratio in data set [1] worked out at 3. For the same molecule, the CC50 at 72 h in data set [2] was 3 µM. In the data set with Plasmodium falciparum [3], this molecule had a pIC50 of 4.92.

Turning to `O=C1[C@H]2Cc3c([nH]c4ccccc34)[C@@H](c3ccc4c(c3)OCO4)N2C(=O)CN1[C@@H]1CCN(CC2CCCC2)C1`, in data set [1], the selectivity ratio is 22. In addition, in data set [2], the 50% cytotoxic concentration (CC50) at 72 h worked out at 22 µM. Also, the pIC50 with Plasmodium falciparum [3] is 6.60.

In the case of `COc1ccc([C@@H]2c3[nH]c4ccccc4c3C[C@@H]3C(=O)N([C@@H]4CCN(Cc5nccn5C)C4)CC(=O)N23)cc1OC`, the Ratio IC50 in data set [6] stood at 3. Besides, in data set [1], the selectivity ratio came to 37. In addition, the values for the pIC50 (in data set [4]; in the data set on Plasmodium falciparum [7]) were 5.25 and 5.80, respectively. This molecule showed a CC50 at 72 h in data set [2] of 37 µM.

For the molecule `COc1ccc([C@@H]2c3[nH]c4ccccc4c3C[C@@H]3C(=O)N([C@@H]4CCN(CCNC(=O)OC(C)(C)C)C4)CC(=O)N23)cc1OC`, the Ratio IC50 in data set [6] was > 13. In addition, in data set [1], the selectivity ratio stood at 10. For the same molecule, the pIC50 in data set [4] is < 5.00; in the data set with Plasmodium falciparum [7], 6.13. Besides, it took 10 µM to reach half-maximal cytotoxicity in data set [2] (CC50 at 72 h).

`CCCCN1CC[C@@H](N2CC(=O)N3[C@H](c4ccc5c(c4)OCO5)c4[nH]c5ccccc5c4C[C@@H]3C2=O)C1`: the selectivity ratio in data set [1] is < 1. The CC50 at 72 h in data set [2] was < 1 µM. For the same molecule, in the data set on Plasmodium falciparum [3], the pIC50 was 4.92.

With `CN1CC(=O)N2[C@H](c3ccc4c(c3)OCO4)c3[nH]c4ccccc4c3C[C@@H]2C1=O`, in data set [2], the 50% cytotoxic concentration (CC50) at 72 h is > 64 µM. Also, the pIC50 in the data set with Plasmodium falciparum [3] was < 4.19.

On to `O=C1[C@H]2Cc3c([nH]c4ccccc34)[C@@H](c3ccc4c(c3)OCO4)N2C(=O)CN1[C@@H]1CCN(CCOc2ccccc2)C1`, for which, in data set [1], the selectivity ratio came out at 11. Further, the CC50 at 72 h in data set [2] was determined as 11 µM. In the data set with Plasmodium falciparum [3], this molecule had a pIC50 of 6.15.

For `O=C1[C@H]2Cc3c([nH]c4ccccc34)[C@@H](c3ccc4nonc4c3)N2C(=O)CN1[C@@H]1CCN(Cc2ccccc2)C1`, the selectivity ratio in data set [1] was > 10. Further, the CC50 at 72 h in data set [2] is > 64 µM. The same molecule gave a pIC50 in the data set with Plasmodium falciparum [3] of 5.22.

With `CN(C)C(=O)CN1CC[C@@H](N2CC(=O)N3[C@H](c4ccc5c(c4)OCO5)c4[nH]c5ccccc5c4C[C@@H]3C2=O)C1`, in data set [1], the selectivity ratio is > 32. Further, the pIC50 in data set [4] was 8.52; in the data set with Plasmodium falciparum [3] it was 5.70. In addition, in data set [2], the CC50 at 72 h is > 32 µM.

For `O=C1[C@H]2Cc3c([nH]c4ccccc34)[C@@H](c3ccc4c(c3)OCO4)N2C(=O)CN1[C@@H]1CCN(Cc2ccccc2)C1`, the selectivity ratio in data set [1] was determined as 20. Also, the pIC50 in data set [4] was 8.30. Moreover, the Ratio IC50 in data set [5] was determined as 0.014. Further, it took 10 µM to reach half-maximal cytotoxicity in data set [2] (CC50 at 72 h).

For the molecule `COc1ccc(CN2CC[C@@H](N3CC(=O)N4[C@H](c5ccc6c(c5)OCO6)c5[nH]c6ccccc6c5C[C@@H]4C3=O)C2)cc1`, in data set [1], the selectivity ratio was < 1. In data set [2], the CC50 at 72 h is < 1 µM. For the same molecule, the pIC50 in the data set on Plasmodium falciparum [3] was 5.00.

With `COc1ccc([C@@H]2c3[nH]c4ccccc4c3C[C@@H]3C(=O)N(C)CC(=O)N23)cc1OC`, the selectivity ratio in data set [1] was > 64. In addition, the pIC50 is < 5.00 in data set [4] and < 4.19 in the data set with Plasmodium falciparum [3]. Further, the CC50 at 72 h in data set [2] is > 64 µM.

As for `O=C1[C@H]2Cc3c([nH]c4ccccc34)[C@@H](c3ccc4c(c3)OCO4)N2C(=O)CN1[C@@H]1CCN(Cc2ccc3c(c2)OCO3)C1`, the selectivity ratio in data set [1] came out at 78. Also, the pIC50 in data set [4] was 8.15; in the data set on Plasmodium falciparum [3], 6.28. The Ratio IC50 in data set [5] turned out to be 0.013. The molecule also came in with a CC50 at 72 h in data set [2] of 78 µM.

On to `O=C1[C@H]2Cc3c([nH]c4ccccc34)[C@@H](c3ccc4c(c3)OCCO4)N2C(=O)CN1[C@@H]1CCN(Cc2ccccc2)C1`, for which the selectivity ratio in data set [1] is > 13. For the same molecule, the 50% cytotoxic concentration (CC50) at 72 h in data set [2] was > 64 µM. In the data set on Plasmodium falciparum [3], this molecule showed a pIC50 of 5.30.

Take `CC(C)(C)OC(=O)NCCN1CC[C@@H](N2CC(=O)N3[C@H](c4ccc5c(c4)OCO5)c4[nH]c5ccccc5c4C[C@@H]3C2=O)C1`: the selectivity ratio in data set [1] worked out at 154. Also, the pIC50 in data set [4] is 9.00; with Plasmodium falciparum [3], 6.66. The Ratio IC50 in data set [5] turned out to be 0.018. Also, it took 154 µM to reach half-maximal cytotoxicity in data set [2] (CC50 at 72 h).

In turn, `O=C1[C@H]2Cc3c([nH]c4ccccc34)[C@@H](c3ccc4c(c3)OCO4)N2C(=O)CN1C1CCN(Cc2ccccc2)CC1` had a CC50 at 72 h in data set [2] of 7 µM.

As for `CN(C)c1ccc(CN2CC[C@@H](N3CC(=O)N4[C@H](c5ccc6c(c5)OCO6)c5[nH]c6ccccc6c5C[C@@H]4C3=O)C2)cc1`, the selectivity ratio in data set [1] is < 1. Besides, in data set [2], the CC50 at 72 h is < 1 µM. In the data set with Plasmodium falciparum [3], this molecule gave a pIC50 of 5.15.

For `O=C1[C@H]2Cc3c([nH]c4ccccc34)[C@@H](c3ccc4c(c3)OCO4)N2C(=O)CN1[C@@H]1CCN(Cc2ccccn2)C1`, the selectivity ratio in data set [1] stood at 13. Also, the negative logarithm of the IC50 (pIC50) was 8.70 in data set [4] and 5.40 with Plasmodium falciparum [3]. This molecule also came in with a CC50 at 72 h in data set [2] of 13 µM.

As to `COc1ccc([C@@H]2c3[nH]c4ccccc4c3C[C@@H]3C(=O)N([C@@H]4CCN(Cc5ccccc5)C4)CC(=O)N23)cc1O`, the selectivity ratio in data set [1] was 36. The pIC50 in data set [4] was 7.25; with Plasmodium falciparum [3] it was 6.21. Further, the CC50 at 72 h in data set [2] was determined as 22 µM.

What is called CC50 is the concentration at which the toxic effect on the cells reaches its halfway point. Read a high CC50 as lower toxicity to the cells. For orientation: pIC50 means −log10 of the IC50, conventionally taken in molar units. Lower therefore signals a large IC50.
